Results as given in PMC3458735, “Design of a novel tryptophan-rich membrane-active antimicrobial peptide from the membrane-proximal region of the HIV glycoprotein, gp41” (Beilstein Journal of Organic Chemistry, 2012).
Where no end group is shown, it is not given here.

How the values were obtained:
E. coli and S. aureus = assay: Antimicrobial activity, covering both strains; type: cell-based; conditions: for antimicrobial activity (in words): at the concentrations tested
Protocol: (§1) The antimicrobial activity for gp41w and its derivatives was determined against Gram-negative E. coli and Gram-positive S. aureus strains (Table 1).
(§2) Minimum inhibitory concentrations (MIC) and minimum bactericidal concentrations (MBC) were determined for E. coli and S. aureus as described previously. Hemolytic activity was also determined by using red blood cells from healthy volunteers, as described previously.

S. aureus = conditions: for MBC S. aureus: minimum bactericidal concentration; for MIC S. aureus: minimum inhibitory concentration
Protocol: as §1, §2

E. coli = conditions: for MBC E. coli: minimum bactericidal concentration; for MIC E. coli: minimum inhibitory concentration
Protocol: as §1, §2

[1] = Acrylamide quenching of Trp fluorescence (Stern-Volmer constant); type: physicochemical; parameters: unit not given here; conditions: acrylamide titration (aliquots of 4 M acrylamide), 25 °C, three separate trials
Protocol: Acrylamide quenching experiments were performed for the four peptides to examine the accessibility of the Trp fluorophores in the various membrane environments. If a Trp side chain inserts into the hydrophobic core of the bilayer, it becomes less accessible to the effects of the soluble acrylamide quencher. The quenching of Trp fluorescence is directly related to the concentration of quencher, so a titration with the neutral acrylamide allows for the calculation of the Stern–Volmer constant (Ksv), which quantitatively measures the accessibility of the Trp residues in various lipid environments.
Intrinsic tryptophan fluorescence of the peptides was measured on a Cary Eclipse Fluorimeter (Agilent Technologies, Victoria, Australia) equipped with a temperature control unit set at 25 °C. Emission spectra were recorded between 300 and 400 nm with an excitation wavelength of 295 nm. Excitation and emission slits were kept at 5 and 10 nm, respectively, for all the peptides except for gp41w-FKA, which has a single Trp residue, and for which both slit widths were maintained at 10 nm. The concentration of SDS and DPC in the fluorescence samples was 25 mM, while the lipid concentration in the LUV samples was 30 μM. Acrylamide titrations were performed to determine Ksv by adding five aliquots of a 4 M acrylamide solution to the sample and recording an emission spectra using the parameters described above. Ksv was calculated by using the formula F0/F = […], Where F0 is the initial fluorescence and F is the fluorescence intensity after the addition of soluble quencher (Q).

[2] = Calcein leakage from LUVs; conditions: 37 °C, triplicate; for calcein leakage from zwitterionic ePC:ePE LUVs: highest peptide:lipid ratio tested; for calcein leakage from zwitterionic ePC:ePE LUVs (in words): melittin as positive control
Protocol: All four peptides were tested for their ability to induce the release of the self-quenching fluorescent dye, calcein, from calcein-encapsulated LUVs.
Melittin (black), a known lytic peptide from honey-bee venom was used as a positive control. All experiments were carried out in triplicate at 37 °C.
Calcein leakage was performed according to established protocols. Melittin, the principal component of bee venom and a known lytic peptide, was used as a positive control. Calcein leakage was measured for LUVs made from lipid mixtures of ePC:ePG, ePE:ePG or ePC:ePE.

[3] = test system: red blood cells from healthy volunteers; assay: Hemolytic activity on red blood cells; type: cell-based, human; conditions: for hemolytic concentration: peptide concentration at which red blood cells were lysed
Protocol: as §2

[4] = 4:4:1 CDCl3:methanol-d3:H2O, 1–2 mg in 500 μL; aggregates persisted at higher temperatures
Protocol: Consequently, we chose to use a cosolvent mixture consisting of four parts deuterated chloroform, four parts deuterated methanol and one part water [19–20].
NMR samples were prepared by dissolving 1–2 mg of lyophilized peptide powder in 500 μL of the miscible cosolvent solution, and then the samples were flame sealed in an NMR tube to avoid evaporation of the organic solvents. Two-dimensional NOESY, TOCSY and COSY spectra were collected at 298 K on a Bruker Avance 700 MHz spectrometer. Mixing times in the NOESY and TOCSY experiments were 100 ms and 120 ms, respectively. Spectra were acquired with 4096 × 600 data points in the F1 and F2 dimensions at a spectral width of 8992.806 Hz. Water suppression was achieved by using excitation sculpting [44].

[5] = earlier attempts at an NMR structure; cited from earlier work
Source text: The lack of antimicrobial activity may be related to the fact that the gp41w peptide appears to oligomerize in solution. […] In terms of the antimicrobial activity, gp41w oligomers may be too large to pass through the peptidoglycan layer surrounding Gram-positive bacteria. Additionally, they would have to disassociate into monomers before the ...

[6] = Tryptophan emission fluorescence in aqueous buffer; type: physicochemical; conditions: 25 °C, excitation 295 nm, a blue-shifted maximum is read as oligomerization in solution
Protocol: Tryptophan emission fluorescence of all the gp41w derivatives was performed to examine the microenvironment surrounding the Trp side chains. It is evident that the behaviour of the gp41w peptide is very different from the other peptides. The wavelength of the maximum emission for gp41w occurs at 342 nm, while the other three peptides have maximum emission wavelengths at ~356 nm. The value of 356 nm is normal for an exposed Trp side chain in aqueous solution. […] A shift towards lower wavelengths is usually interpreted as the Trp residue residing in a more hydrophobic environment, which may be due to the gp41w peptides oligomerizing in solution.
Intrinsic tryptophan fluorescence of the peptides was measured on a Cary Eclipse Fluorimeter (Agilent Technologies, Victoria, Australia) equipped with a temperature control unit set at 25 °C. Emission spectra were recorded between 300 and 400 nm with an excitation wavelength of 295 nm. […] The concentration of SDS and DPC in the fluorescence samples was 25 mM, while the lipid concentration in the LUV samples was 30 μM. […] Ksv was calculated by using the formula F0/F = […], Where F0 is the initial fluorescence and F is the fluorescence intensity after the addition of soluble quencher (Q).

[7] = most potent peptide of Lee et al.; cited from earlier work
Source text: Other de novo strategies for generating AMPs have been reported in the literature. For instance, Lee et al. recently published a study wherein they synthesized short peptides (5-11 residues) composed of only three amino acids: Lys, Leu and Trp. Their results support the notion that the antimicrobial activity of a peptide is related to peptide amphipathicity and helicity as well as to the location of the Trp residues.

Substance	antimicrobial activity (in words) (E. coli and S. aureus; E. coli and S. aureus)	concentrations of bacteriostatic and bactericidal effects (E. coli and S. aureus; range over MIC and MBC of both strains) [µg/mL]	MBC S. aureus (S. aureus) [µg/mL]	MIC S. aureus (S. aureus) [µg/mL]	MBC E. coli (E. coli) [µg/mL]	MIC E. coli (E. coli) [µg/mL]	Ksv (Stern-Volmer constant) in buffer [1]	calcein leakage from zwitterionic ePC:ePE LUVs [2]	hemolytic concentration [3] [µg/mL]	calcein leakage from zwitterionic ePC:ePE LUVs (in words) [2]	Hemolysis EC50 ([3]; effective concentration for 50% hemolysis, red blood cells from healthy volunteers) [µg/mL]	solubility in the cosolvent mixture (in words) [4]	concentration below which no antimicrobial activity was observed (E. coli and S. aureus; E. coli and S. aureus) [µg/mL]	behaviour in aqueous solution or 40% TFE (in words) [5]	wavelength of the maximum Trp emission in aqueous buffer [6] [nm]	concentration below which hemolysis was not observed [3] [µg/mL]	hemolysis (in words) ([3]; peptide added to red blood cells)	hemolytic activity (in words) [7]
KFAKKFKWFAKAAFKFFKK-NH2 [gp41w-FKA]	significant antimicrobial activity	10 to 50	20 to 30	<10	40 to 50	10 to 30	17.9	~ 70%	195									
KWAKKWKWFAKAAWKWYKK-NH2 [gp41w-KA]	inactive		>100	>100	>100	>100	16.4	~ 70%	42									
KWARLWRWFRITRWLWYIK-NH2 [gp41w-4R]	inactive		>100	>100	>100	>100	27.8		7	significant leakage	7 to 14							
KWASLWNWFNITNWLWYIK-NH2 [gp41w]	inactive		>100	>100	>100	>100	10.3			caused leakage, but not to the same extent		did not readily dissolve	≥ 100	peptide aggregation or poor solubility	342	≥ 500	minimal hemolysis	
LKWLLKWLL-NH2																		significant hemolytic activity
